# Results from US20060199803A1, “Compounds” (Kudos Pharmaceuticals Ltd, priority 2005, published 2006).
# Target: T1, mTOR protein (Homo sapiens, UniProt P42345)
# T1 construct: mTOR protein was isolated from HeLa cell cytoplasmic extract by immunoprecipitation; endogenous in cells; host or cells: HeLa cell cytoplasmic extract (immunoprecipitation)
# Assay: mTOR enzyme activity assay (immunoprecipitated mTOR, recombinant PHAS-1 as substrate)
# Assay type: biochemical
# Details: mTOR isolated from HeLa cell cytoplasmic extract by immunoprecipitation; recombinant PHAS-1 substrate
row,SMILES,IC50 [nM]
1,C[C@H]1COCCN1c1nc(N2CCOCC2c2ccccc2)nc2ncccc12 (stereo partly drawn) [4ah],< 1500
2,C[C@H]1COCCN1c1nc(N2CCOC(c3ccccc3)C2)nc2ncccc12 (stereo partly drawn) [4ag],< 1500
3,CCC1CCCCN1c1nc(N2CCOCC2)c2cccnc2n1 (stereo not drawn) [4n],< 1500
4,FC(F)(F)C1CCCN(c2nc(N3CCOCC3)c3cccnc3n2)C1 (stereo not drawn) [4h],< 1500
5,C[C@@H]1CN(c2nc(N3CCOC[C@@H]3C)c3cccnc3n2)C[C@H](C)O1 [4af],< 1500
6,C[C@H]1CCCCN1c1nc(N2CCCOCC2)c2cccnc2n1 [4ab],< 1500
7,c1cnc2nc(N3CCCCC3)nc(N3CCOCC3)c2c1 [4y],< 1500
8,NC(=O)C1CCN(c2nc(N3CCOCC3)c3ccncc3n2)CC1 [4d],< 1500
9,OCCC1CCCCN1c1nc(N2CCOCC2)c2cccnc2n1 (stereo not drawn) [4o],< 1500
10,C[C@@H]1CN(c2nc(N3CCOCC3)c3cccnc3n2)C[C@H](C)O1 [4c],< 1500

# Continued, values first:
row,IC50 [nM],SMILES
1,< 1500,C[C@H]1COCCN1c1nc(N2CCOC(CNC(=O)c3cccs3)C2)nc2ncccc12 (stereo partly drawn) [5k]
2,< 1500,C[C@H]1COCCN1c1nc(N2CCOC(Cn3c(=O)oc4ccccc43)C2)nc2ncccc12 (stereo partly drawn) [5h]
3,< 1500,COC(=O)C(=O)NCC1CN(c2nc(N3CCOC[C@@H]3C)c3cccnc3n2)CCO1 (stereo partly drawn) [5m]
4,< 1500,C[C@H]1COCCN1c1nc(N2CCOC(COc3nccc4ccccc34)C2)nc2ncccc12 (stereo partly drawn) [5z]
5,< 1500,C[C@H]1COCCN1c1nc(N2CCOC(CN3C(=O)c4cccc(N)c4C3=O)C2)nc2ncccc12 (stereo partly drawn) [5g]
